In patent publication US20100233229A1, “IN-VIVO INDWELLING DEVICE” (Terumo Kabushiki Kaisha, priority 2007, published 2010):

Assay: ultra-micro hardness under load (HTL) of coating layer, JIS Z2255, dynamic ultra micro hardness tester
Format: physicochemical
Details: coating layer on SUS disc; 50 mg sirolimus, 50 mg PLGA, 10 mg (20% based on PLGA) of the triglyceride; about 30 μm
Description: When the medium-chain fatty acid triglyceride is added to the coating layer (for example, the layer formed on at least a part of a surface of a stent main body and formed from the composition containing the biologically active agent, the biodegradable polymer, and the medium-chain fatty acid triglyceride) formed on a surface of the in-vivo indwelling device, for example, on a surface of a stent, flexibility can be imparted to the coating layer. In addition, as a method for quantitatively measuring the flexibility of a very thin layer such as the above-mentioned coating layer, measurement of ultra-micro hardness under load (also called “HTL,” “dynamic hardness” and “universal hardness”) by use of an ultra-micro hardness tester can be used. In this method, as described in JIS Z2255, hardness of a solid material is measured as a resistance to a triangular pyramid diamond indenter when the indenter is pressed against the surface of a specimen, and it is possible by the method to measure hardness in a very minute region of a solid material having a thickness of not less than 10 μm. In order that such a damage as cracking of the coating layer or exfoliation of the coating layer from the stent main body is mitigated or not generated when the stent is expanded, the ultra-micro hardness under load can be 15 or below, more preferably 12 or below, and particularly preferably 10 or below. The present inventors have made earnest search for a substance which causes the ultra-micro hardness under load of the coating layer to be, for example, 15 or below and which is high in safety, among a large number of additives. As a result of the search, they found exemplary medium-chain fatty acid triglycerides.
The circular discs provided thereon with the respective coating layers were sterilized by electron beams, and ultra-micro hardness under load (HTL) of the coating layers was measured according to JIS Z2255 by use of a dynamic ultra micro hardness tester produced by Shimadzu Corporation. A lower value of HTL indicates a higher flexibility of the coating layer.
The stent was crimped onto a balloon of a delivery catheter, and sterilized by electron beams. The ultra-micro hardness under load (HTL) of the coating layer after sterilization was measured according to JIS Z2255 by use of a dynamic ultra micro hardness tester produced by Shimadzu Corporation.

| ultra-micro hardness under load (HTL) | Structure (SMILES) |
| --- | --- |
| 9 | CCCCCCCCCC(=O)OCC(COC(=O)CCCCCCCCC)OC(=O)CCCCCCCCC [Tricaprin] |
| 15 | CCCCCC(=O)OCC(COC(=O)CCCCC)OC(=O)CCCCC [Tricaproin] |
| 10 | CCCCCCCC(=O)OCC(COC(=O)CCCCCCC)OC(=O)CCCCCCC [Tricaprylin] |
| 20 | CCCCCCCCCCCCCC(=O)OCC(COC(=O)CCCCCCCCCCCCC)OC(=O)CCCCCCCCCCCCC [Trimyristin] |

Further lines, the molecule ahead of its results:

| Structure (SMILES) | ultra-micro hardness under load (HTL) |
| --- | --- |
| CC(=O)OCC(COC(C)=O)OC(C)=O [Triacetin] | 20 |
| CCCC(=O)OCC(COC(=O)CCC)OC(=O)CCC [Tributyrin] | 19 |
| CCCCCCCCCCCC(=O)OCC(COC(=O)CCCCCCCCCCC)OC(=O)CCCCCCCCCCC [Trilaurin] | 15 |
